Here are results for 32 compounds from patent publication US10214519B2, “Phosphatidylinositol 3-kinase inhibitors” (Gilead Sciences, Inc., priority 2016, dated 2019).

pIC50: −log10 of the molar value. Where only a bound is given, the exact number is not on record here.

As usually defined, the pIC50 is the IC50 on a negative log10 scale, so that one unit is a factor of ten.

The experiment deals with PI3Kβ (Homo sapiens (Human), UniProt P42338). As to the kind of experiment: PI3K isoform TR-FRET enzymatic assay (PI3Kβ). The experiment is classed as biochemical. The conditions noted are these: 2× Km ATP, 30 minutes at 25° C. The method, boiled down:
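IC50 came from four-parameter dose-response fits, normalized between DMSO and 1 μM wortmannin controls. The read-out was TR-FRET (615/665 nm) of PIP3 displacing fluorescent PIP3 from Europium GRP-1 after 10 mM EDTA termination. Compounds were incubated with purified heterodimeric PI3Kβ for 30 min at 25° C.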
For orientation: Time-resolved FRET reads energy transfer from a long-lived donor to a nearby acceptor.

Chain of PI3Kβ (P42338 whole entry, canonical isoform): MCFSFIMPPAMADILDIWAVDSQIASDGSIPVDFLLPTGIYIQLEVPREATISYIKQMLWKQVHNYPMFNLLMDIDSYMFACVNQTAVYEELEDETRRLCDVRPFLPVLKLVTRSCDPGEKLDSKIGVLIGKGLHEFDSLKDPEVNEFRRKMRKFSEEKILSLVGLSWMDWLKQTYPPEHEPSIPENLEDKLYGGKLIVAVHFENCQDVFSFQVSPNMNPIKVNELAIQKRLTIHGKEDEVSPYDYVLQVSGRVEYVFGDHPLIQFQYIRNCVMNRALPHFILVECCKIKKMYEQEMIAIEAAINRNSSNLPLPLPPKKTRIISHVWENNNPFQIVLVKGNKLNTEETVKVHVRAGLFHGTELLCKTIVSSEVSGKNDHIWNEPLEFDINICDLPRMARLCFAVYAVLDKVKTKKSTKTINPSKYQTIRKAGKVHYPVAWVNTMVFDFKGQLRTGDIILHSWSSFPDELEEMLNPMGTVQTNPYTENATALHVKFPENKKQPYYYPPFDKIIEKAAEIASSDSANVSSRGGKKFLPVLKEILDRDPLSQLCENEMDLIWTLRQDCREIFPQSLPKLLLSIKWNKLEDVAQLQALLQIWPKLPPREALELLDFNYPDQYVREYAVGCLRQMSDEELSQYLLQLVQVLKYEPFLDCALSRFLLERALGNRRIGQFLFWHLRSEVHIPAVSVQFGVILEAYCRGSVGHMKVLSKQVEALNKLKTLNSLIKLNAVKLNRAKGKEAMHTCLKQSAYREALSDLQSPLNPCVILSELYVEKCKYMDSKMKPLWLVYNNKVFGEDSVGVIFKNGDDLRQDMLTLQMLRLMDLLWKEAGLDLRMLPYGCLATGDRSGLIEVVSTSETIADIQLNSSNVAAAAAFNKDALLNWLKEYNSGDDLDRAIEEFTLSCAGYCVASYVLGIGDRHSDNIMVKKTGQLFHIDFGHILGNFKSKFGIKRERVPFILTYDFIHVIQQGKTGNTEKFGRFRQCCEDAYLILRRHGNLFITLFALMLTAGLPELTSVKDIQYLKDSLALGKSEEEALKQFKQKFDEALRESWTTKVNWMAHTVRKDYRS
Chain of PI3Kβ (P27986 whole entry partner, canonical isoform): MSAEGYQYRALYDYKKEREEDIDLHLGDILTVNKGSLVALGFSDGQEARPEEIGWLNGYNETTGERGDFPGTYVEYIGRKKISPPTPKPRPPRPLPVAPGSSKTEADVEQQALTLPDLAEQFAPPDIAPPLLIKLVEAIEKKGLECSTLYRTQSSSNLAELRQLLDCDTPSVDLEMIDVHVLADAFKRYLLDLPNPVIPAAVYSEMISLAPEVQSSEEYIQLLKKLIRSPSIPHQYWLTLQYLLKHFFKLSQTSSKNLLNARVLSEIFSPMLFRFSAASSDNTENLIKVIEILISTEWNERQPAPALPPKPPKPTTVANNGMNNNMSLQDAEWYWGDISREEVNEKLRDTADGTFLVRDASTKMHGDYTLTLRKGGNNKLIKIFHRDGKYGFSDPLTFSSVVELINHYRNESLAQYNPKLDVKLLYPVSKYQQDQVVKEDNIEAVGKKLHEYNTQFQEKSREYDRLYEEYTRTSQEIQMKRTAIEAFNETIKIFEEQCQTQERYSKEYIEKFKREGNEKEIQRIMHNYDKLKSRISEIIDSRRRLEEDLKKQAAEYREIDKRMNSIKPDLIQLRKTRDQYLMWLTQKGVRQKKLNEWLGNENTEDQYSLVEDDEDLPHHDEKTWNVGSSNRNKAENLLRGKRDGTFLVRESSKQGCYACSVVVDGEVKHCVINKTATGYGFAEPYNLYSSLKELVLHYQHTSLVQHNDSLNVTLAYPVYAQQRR

For `Cc1nc2c(-c3ncco3)cc(N3CCOCC3)cc2n1-c1ccnc2c(F)ccc(F)c12` [Example 229, 4-[3-(5,8-difluoroquinolin-4-yl)-2-methyl-7-(1,3-oxazol-2-yl)benzimidazol-5-yl]morpholine], the negative logarithm of the IC50 (pIC50) is 8.30. `Cc1nc2c(-c3nnc(N)[nH]3)cc(N3CCOCC3)cc2n1-c1ccnc2c(F)ccc(F)c12` [Example 393, 5-(1-(5,8-difluoroquinolin-4-yl)-2-methyl-6-morpholino-1H-benzo[d]imidazol-4-yl)-4H-1,2,4-triazol-3-amine] had a pIC50 of 7.68. For the compound `Cc1nnc(-c2cc(N3CCOCC3)cc3c2nc(CC2CC2)n3-c2ccnc3c(Cl)cccc23)[nH]1` [Example 8, 4-(1-(8-chloroquinolin-4-yl)-2-(cyclopropylmethyl)-4-(5-methyl-4H-1,2,4-triazol-3-yl)-1H-benzo[d]imidazol-6-yl)morpholine], the negative logarithm of the IC50 (pIC50) was 7.49. Under `N#Cc1ncc(-c2cc(N3CCOCC3)cc3c2ncn3-c2ccnc3c(F)ccc(F)c23)[nH]1` [Compound 394, 5-(1-(5,8-Difluoroquinolin-4-yl)-6-morpholino-1H-benzo[d]imidazol-4-yl)-1H-imidazole-2-carbonitrile] stands 6.07; under `Cc1nc2c(-c3nnc[nH]3)cc(N3CCOCC3)cc2n1-c1ccnc2c(F)cc(F)cc12` [Example 145, 4-[3-(6,8-difluoroquinolin-4-yl)-2-methyl-7-(4H-1,2,4-triazol-3-yl)benzimidazol-5-yl]morpholine], 7.25; under `CCc1nc2ccccc2c(-n2c(C)nc3c(-c4nc(C)n[nH]4)cc(N4CCOCC4)cc32)c1C` [Example 76, 4-[3-(2-ethyl-3-methylquinolin-4-yl)-2-methyl-7-(3-methyl-1H-1,2,4-triazol-5-yl)benzimidazol-5-yl]morpholine], 7.54.

As for `Fc1cccc2c(-n3cnc4c(-c5nnc[nH]5)cc(N5CCOCC5)cc43)ccnc12` [Example 95, 4-[3-(8-fluoroquinolin-4-yl)-7-(4H-1,2,4-triazol-3-yl)benzimidazol-5-yl]morpholine], the pIC50 was 8.22.

The compound `CCc1nc2ccccc2c(-n2c(C)nc3c(-c4nnc[nH]4)cc(N4CCOCC4)cc32)c1C` [Example 55, 4-[3-(2-ethyl-3-methylquinolin-4-yl)-2-methyl-7-(4H-1,2,4-triazol-3-yl)benzimidazol-5-yl]morpholine] showed a pIC50 of 7.57. This pIC50 lies 0.65 log units lower than the previous one. Consider `Cc1nc2c(-c3ccncc3)cc(N3CCOCC3)cc2n1-c1ccnc2c(-c3ccncc3)cccc12` [Example 320, 4-[2-methyl-7-pyridin-4-yl-3-(8-pyridin-4-ylquinolin-4-yl)benzimidazol-5-yl]morpholine], for which the pIC50 was less than 5.00. Under `Fc1ccc(F)c2c(-n3c(C4CC4)nc4c(-c5cnc(Cl)[nH]5)cc(N5CCOCC5)cc43)ccnc12` (atropisomer, axis not shown) [Compound 343, 4-[7-(2-chloro-1H-imidazol-5-yl)-2-cyclopropyl-3-(5,8-difluoroquinolin-4-yl)benzimidazol-5-yl]morpholine] stands 8.30; under `Cc1n[nH]c(-c2cc(N3CCOCC3)cc3c2nc(C)n3-c2c(C)cnc3ccccc23)n1` [Example 74, 4-[2-methyl-3-(3-methylquinolin-4-yl)-7-(3-methyl-1H-1,2,4-triazol-5-yl)benzimidazol-5-yl]morpholine], 7.21; under `Cc1nc2c(-c3nnc[nH]3)cc(N3CCOCC3)c(F)c2n1-c1ccnc2c(Cl)ccc(F)c12` [Example 150, 4-(1-(8-chloro-5-fluoroquinolin-4-yl)-7-fluoro-2-methyl-4-(4H-1,2,4-triazol-3-yl)-1H-benzo[d]imidazol-6-yl)morpholine], 7.57. Under `Cc1nc2c(-c3ncco3)cc(N3CCOCC3)cc2n1-c1ccnc2c(Cl)cccc12` [Example 204, 4-[3-(8-chloroquinolin-4-yl)-2-methyl-7-(1,3-oxazol-2-yl)benzimidazol-5-yl]morpholine] stands 8.10. Under `Cc1nc2c(-c3nnc[nH]3)cc(N3CCOCC3)cc2n1-c1c(-c2nnc[nH]2)cnc2ccccc12` [Example 392, 4-(1-(3-(4H-1,2,4-triazol-3-yl)quinolin-4-yl)-2-methyl-4-(4H-1,2,4-triazol-3-yl)-1H-benzo[d]imidazol-6-yl)morpholine] stands 8.05. `Fc1ccc2c(-n3cnc4c(-c5nnc[nH]5)cc(N5CCOCC5)cc43)ccnc2c1Cl` [Example 29, 4-(1-(8-chloro-7-fluoroquinolin-4-yl)-4-(4H-1,2,4-triazol-3-yl)-1H-benzo[d]imidazol-6-yl)morpholine] gave a pIC50 of 8.15. Under `Cc1nnc(-c2cc(N3CCOCC3)cc3c2nc(C)n3-c2ccnc3c(F)cccc23)[nH]1` [Example 130, 4-[3-(8-fluoroquinolin-4-yl)-2-methyl-7-(5-methyl-4H-1,2,4-triazol-3-yl)benzimidazol-5-yl]morpholine] stands 7.06; under `Cc1nc[nH]c1-c1cc(N2CCOCC2)cc2c1nc(C)n2-c1ccnc2c(Cl)cccc12` [Example 177, 4-[3-(8-chloroquinolin-4-yl)-2-methyl-7-(4-methyl-1H-imidazol-5-yl)benzimidazol-5-yl]morpholine], 6.64. Consider `Cc1nc2c(-c3nnc[nH]3)cc(N3CCOCC3)cc2n1-c1ccnc2c(F)ccc(Cl)c12` (atropisomer, axis not shown) [Compound 345, 4-[3-(5-chloro-8-fluoroquinolin-4-yl)-2-methyl-7-(4H-1,2,4-triazol-3-yl)benzimidazol-5-yl]morpholine], for which the pIC50 is 5.35. This pIC50 is 1.29 log units lower than that of the compound before.

For `Cc1nnc(-c2cc(N3CCOCC3)cc3c2nc(C)n3-c2ccnc3c(Cl)ccc(F)c23)[nH]1` [Example 94, 4-[3-(8-chloro-5-fluoroquinolin-4-yl)-2-methyl-7-(5-methyl-4H-1,2,4-triazol-3-yl)benzimidazol-5-yl]morpholine], the pIC50 is 7.59. This pIC50 lies 2.24 log units higher than the previous one. With `Cc1nnc(-c2cc(N3CCOCC3)cc3c2nc(C)n3-c2c(Cl)cnc3c(Cl)cccc23)[nH]1` (atropisomer, axis not shown) [Compound 367, 4-(1-(3,8-dichloroquinolin-4-yl)-2-methyl-4-(5-methyl-4H-1,2,4-triazol-3-yl)-1H-benzo[d]imidazol-6-yl)morpholine] the figure was 5.25; with `CCCc1nc2c(-c3nc(C)cs3)cc(N3CCOCC3)cc2n1-c1ccnc2c(F)ccc(F)c12` [Example 235, 4-[3-(5,8-difluoroquinolin-4-yl)-7-(4-methyl-1,3-thiazol-2-yl)-2-propylbenzimidazol-5-yl]morpholine], 7.77. Consider `Clc1cccc2c(-n3c(C4CCC4)nc4c(-c5nnc[nH]5)cc(N5CCOCC5)cc43)ccnc12` [Example 30, 4-(1-(8-chloroquinolin-4-yl)-2-cyclobutyl-4-(4H-1,2,4-triazol-3-yl)-1H-benzo[d]imidazol-6-yl)morpholine], for which the pIC50 was 8.10. `CCCc1nc2c(-c3nnc[nH]3)cc(N3CCOCC3)cc2n1-c1ccnc2cc(F)ccc12` [Example 7, 4-(1-(7-fluoroquinolin-4-yl)-2-propyl-4-(4H-1,2,4-triazol-3-yl)-1H-benzo[d]imidazol-6-yl)morpholine] had a pIC50 of 7.51.

`CC(C)Cc1nc2c(-c3cnc(Cl)[nH]3)cc(N3CCOCC3)cc2n1-c1ccnc2c(F)ccc(F)c12` [Example 300, 4-[7-(2-chloro-1H-imidazol-5-yl)-3-(5,8-difluoroquinolin-4-yl)-2-(2-methylpropyl)benzimidazol-5-yl]morpholine] gave a pIC50 of 7.85. With `Clc1cccc2c(-n3c(C4CC4)nc4c(-c5nnc[nH]5)cc(N5CCOCC5)cc43)ccnc12` [Example 110, 4-[3-(8-chloroquinolin-4-yl)-2-cyclopropyl-7-(4H-1,2,4-triazol-3-yl)benzimidazol-5-yl]morpholine] the figure was 7.72; with `Fc1ccc2c(-n3c(C4CC4)nc4c(-c5nnc(Cl)[nH]5)cc(N5CCOCC5)cc43)ccnc2c1Cl` [Example 173, 4-(4-(5-chloro-4H-1,2,4-triazol-3-yl)-1-(8-chloro-7-fluoroquinolin-4-yl)-2-cyclopropyl-1H-benzo[d]imidazol-6-yl)morpholine], 6.85. In turn, `CCCc1nc2c(-c3ncco3)cc(N3CCOCC3)cc2n1-c1ccnc2c(F)ccc(F)c12` [Example 230, 4-(1-(5,8-difluoroquinolin-4-yl)-4-(oxazol-2-yl)-2-propyl-1H-benzo[d]imidazol-6-yl)morpholine] gave a pIC50 of 8.15. `Clc1ncc(-c2cc(N3CCOCC3)cc3c2nc(C2CC2)n3-c2ccnc3c(Cl)cccc23)[nH]1` [Example 290, 4-[7-(2-chloro-1H-imidazol-5-yl)-3-(8-chloroquinolin-4-yl)-2-cyclopropylbenzimidazol-5-yl]morpholine] had a pIC50 of 7.17.

Compound `Cc1nnc(-c2cc(N3CCOCC3)cc3c2ncn3-c2ccnc3cc(F)ccc23)[nH]1` [Example 22, 4-(1-(7-fluoroquinolin-4-yl)-4-(5-methyl-4H-1,2,4-triazol-3-yl)-1H-benzo[d]imidazol-6-yl)morpholine] showed a pIC50 of 6.55. As to `CCc1nc2c(F)cccc2c(-n2c(C)nc3c(-c4nc(C)n[nH]4)cc(N4CCOCC4)cc32)c1C` [Example 80, 4-[3-(2-ethyl-8-fluoro-3-methylquinolin-4-yl)-2-methyl-7-(3-methyl-1H-1,2,4-triazol-5-yl)benzimidazol-5-yl]morpholine], the pIC50 was 7.21. Under `Clc1cccc2c(-n3c(-c4cnco4)nc4c(-c5nnc[nH]5)cc(N5CCOCC5)cc43)ccnc12` [Example 112, 4-[3-(8-chloroquinolin-4-yl)-2-(1,3-oxazol-5-yl)-7-(4H-1,2,4-triazol-3-yl)benzimidazol-5-yl]morpholine] stands 7.77; under `CCc1nc2c(-c3cnc(Cl)[nH]3)cc(N3CCOCC3)cc2n1-c1cc(C)nc2c(F)cccc12` [Example 283, 4-[7-(2-chloro-1H-imidazol-5-yl)-2-ethyl-3-(8-fluoro-2-methylquinolin-4-yl)benzimidazol-5-yl]morpholine], 7.15.
